# Data: patent US8338173B2, “Preparation of antigen-presenting human γδ T cells and use in immunotherapy” (University College Cardiff Consultants Limited, priority 2005, dated 2012)
# B1: Melan-A: melanocyte/melanoma-differentiation antigen (protein, UniProt Q16655 1-118, looked up)
# Melanoma antigen recognized …: MPREDAHFIYGYPKKGHGHSYTTAEEAAGIGILTVILGVLLLIGCWYCRRRNGYRALMDKSLHVGTQCALTRRCPQEGFDHRDSKVSLQEKNCEPVVPNAPPAYEKLSAEQSPPPYSP
# Legend:
# [1] = tested on: M1p58-66-specific CD8^+ αβ T cell clone FLUMA55; assay type: cell-based, human
# Vγ9Vδ2^+ T cells = assay: Expression of cell surface APC markers during γδ T cell activation with inhibitors; conditions: FIG. 19 B
# naïve CD4^+ αβ T cells = assay type: cell-based, human
# [2] = tested on: Melp26-35-specific, HLA-A2-restricted CD8^+ αβ T cell clone LAU 337; assay type: cell-based, human
Molecule,inhibition of M1 cross-presentation in γδ T-APCs and DCs [1],responses to M1p58-66 pulsed APCs [1],"expression of cell surface APC markers (MHC II, CD71, CD80, CD86) after TCR-triggering (Vγ9Vδ2^+ T cells)",Vβ2^+ (%) (naïve CD4^+ αβ T cells),IFN-γ production in Melp26-35-specific responder cell clones [2]
C[C@H]1CCC/C=C/[C@@H]2C[C@H](O)C[C@H]2[C@H](O)/C=C/C(=O)O1 [brefeldin A],fully inhibited,only partially affected,inhibited,,
CCN(CC)CCCC(C)Nc1ccnc2cc(Cl)ccc12 (stereo not drawn) [chloroquin],≤ 50%,,,,
CC(=O)N[C@@H](CSC(=O)[C@]1([C@@H](O)C(C)C)NC(=O)[C@H](C)[C@@H]1O)C(=O)O [lactacystin],fully inhibited,only partially affected,inhibited,,
phytohemagglutinin [PHA],,,,9,
B1,,,,,failed to induce IFN-γ production
